US11299478B2, “2-cyanopyrimidin-4-yl carbamate or urea derivative or salt thereof, and pharmaceutical composition including same” (HANLIM PHARMACEUTICAL CO., LTD., priority 2018, dated 2022)

Tests used:
Type in all cases: biochemical
[1] = target: T1, cathepsin K (Homo sapiens, UniProt P43235); experiment: Inhibitory activity assay against cathepsin K (enzyme assay); conditions: Z-Phe-Arg-AMC 10 μM, enzyme 1 nM, pH 5.5, 30 minutes
T1 sequence (P43235 115-329): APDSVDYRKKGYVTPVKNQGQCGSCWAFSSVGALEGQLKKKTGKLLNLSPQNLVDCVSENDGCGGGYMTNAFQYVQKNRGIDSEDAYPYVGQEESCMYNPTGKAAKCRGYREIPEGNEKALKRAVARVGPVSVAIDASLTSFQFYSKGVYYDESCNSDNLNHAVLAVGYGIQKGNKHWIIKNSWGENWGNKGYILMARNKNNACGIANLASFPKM
Method in brief: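 IC50 by 4-parameter logistic fit of fluorescence (ex 355 nm, em 460 nm) after 30 min reaction. Compound tested at 10 final concentrations from 10.0 μM down to 0.000508 μM against 1 nM enzyme and 10 μM Z-Phe-Arg-AMC, in MES buffer pH 5.5 with DTT, EDTA, Triton X-100 and 10% DMSO.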

[2] = target: cathepsin B (Homo sapiens, UniProt P07858); experiment: Inhibitory activity assay against cathepsin B (enzyme assay); conditions: Z-Arg-Arg-AMC 40 μM, enzyme 1 nM, pH 6.0, 90 minutes
Method in brief: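 Reaction run 90 min in MES buffer pH 6.0 containing DTT, EDTA, Polysorbate 20 and 10% DMSO, using 40 μM fluorogenic Z-Arg-Arg-AMC and 1 nM cathepsin B. Ten compound levels from 10.0 μM; AMC fluorescence at ex 340/em 460 nm fitted to a 4-parameter logistic for IC50.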

[3] = target: cathepsin L (Homo sapiens, UniProt P07711); experiment: Inhibitory activity assay against cathepsin L (enzyme assay); conditions: Z-Phe-Arg-AMC 2 μM, enzyme 3 nM, pH 5.5, 30 minutes
Method in brief: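 IC50s came from 4-parameter logistic fits of ten concentrations (10.0 μM down to 0.000508 μM). Reaction: 30 min, 3 nM enzyme, 2 μM Z-Phe-Arg-AMC, pH 5.5 MES buffer containing DTT, EDTA, Polysorbate 20 and 10% DMSO; fluorescence read 340/460 nm.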

[4] = target: cathepsin S (Homo sapiens, UniProt P25774); experiment: Inhibitory activity assay against cathepsin S (enzyme assay); conditions: Z-Phe-Arg-AMC 70 μM, enzyme 3 nM, pH 6.5, 45 minutes
Method in brief: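 Ten-point compound titration (10.0 to 0.000508 μM final) reacted 45 min with 3 nM cathepsin S and 70 μM Z-Phe-Arg-AMC in MES 50 mM pH 6.5, DTT 2.5 mM, EDTA 1.0 mM, BSA 0.001%, DMSO 10%. AMC release read at 340/460 nm; IC50 from four-parameter logistic fit.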

cathepsin S, sequence (P25774 115-331, species assumed): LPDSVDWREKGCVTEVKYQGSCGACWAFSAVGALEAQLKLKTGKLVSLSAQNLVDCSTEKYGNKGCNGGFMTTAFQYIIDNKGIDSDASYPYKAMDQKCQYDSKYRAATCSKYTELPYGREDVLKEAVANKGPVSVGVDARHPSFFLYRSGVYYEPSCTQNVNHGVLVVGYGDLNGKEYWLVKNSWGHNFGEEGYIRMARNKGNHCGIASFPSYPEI
cathepsin L, sequence (P07711 114-333, species assumed): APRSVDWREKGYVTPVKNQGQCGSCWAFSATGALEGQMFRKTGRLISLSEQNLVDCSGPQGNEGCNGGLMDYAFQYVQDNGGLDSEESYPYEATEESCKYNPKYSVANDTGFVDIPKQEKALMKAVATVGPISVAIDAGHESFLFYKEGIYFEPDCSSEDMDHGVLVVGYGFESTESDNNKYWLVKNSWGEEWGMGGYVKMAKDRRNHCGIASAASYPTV

SMILES	IC50 [1]	IC50 [2]	IC50 [3]	IC50 [4]
CC(=O)Nc1ccc(-c2ccc(NC(=O)NC3(c4ccnc(C#N)n4)CCCCC3)cc2F)cc1 [Example 164, N-(4′-(3-(1-(2-cyanopyrimidin-4-yl)cyclohexyl)ureido)-2′-fluoro-[1,1′-biphenyl]-4-yl)acetamide]	6.2 nM	> 10000 nM	> 10000 nM	4640 nM
N#Cc1nccc(C2(NC(=O)NCc3ccccc3)CCCC2)n1 [Example 42, 1-benzyl-3-(1-(2-cyanopyrimidin-4-yl)cyclopentyl)urea]	31.2 nM	> 10000 nM	7540 nM	> 10000 nM
N#Cc1nccc(C2(NC(=O)NCc3ccccc3C(F)(F)F)CCCC2)n1 [Example 56, 1-(1-(2-cyanopyrimidin-4-yl)cyclopentyl)-3-(2-(trifluoromethyl)benzyl)urea]	101 nM	> 10000 nM	> 10000 nM	> 10000 nM
Cn1ncc2ccc(-c3cccc(COC(=O)NC4(c5ccnc(C#N)n5)CCCC4)c3)cc21 [Example 36, 3-(1-methyl-1H-indazol-6-yl)benzyl (1-(2-cyanopyrimidin-4-yl)cyclopentyl)carbamate]	31.9 nM	> 10000 nM	> 10000 nM	7350 nM
N#Cc1nccc(C2(NC(=O)OCc3ccc(-c4ccc(N5CCOCC5)cc4)cc3)CCCC2)n1 [Example 31, (4′-morpholino-[1,1′-biphenyl]-4-yl)methyl (1-(2-cyanopyrimidin-4-yl)cyclopentyl)carbamate]	934 nM	> 10000 nM	> 10000 nM	> 10000 nM
